Laboratory results reported in PMC8101618, “Comparable Initial Engagement of Intracellular Signaling Pathways by Parathyroid Hormone Receptor Ligands Teriparatide, Abaloparatide, and Long‐Acting PTH” (JBMR Plus, 2021).

Key:
[1] = test system: SIK; details: cultured osteocytes and in vivo; cited from earlier work
Description: Although it is well‐established that PTH‐mediated increases in bone formation require actions in osteocytes,^( ^19 , ^23 ^) the signaling events downstream of the PTH1R in osteocytes have remained elusive. We recently described a new signaling pathway that relays information from the PTH1R to the nucleus in osteocytes.^( ^24 ^) A crucial step in this cascade involves cyclic AMP (cAMP)‐mediated inhibition of salt inducible kinase 2 (SIK2). Importantly, PTH1R‐induced SIK2 phosphorylation/inactivation occurs rapidly (within 1 min of receptor engagement by hPTH (1‐34)) and then diminishes.^( ^24 ^ ...

[2] = test system: PTH1R; details: cited from earlier work
Description: Recruitment of the intracellular scaffolding proteins β‐arrrestin1/2 is a well‐characterized step that occurs following activation and GRK‐dependent phosphorylation in multiple G‐Protein‐Coupled Receptors (GPCRs) signaling systems.^( ^39 ^) β‐arrestin recruitment is traditionally thought to lead to signal termination due to receptor internalization.

[3] = test system: HDAC4 S246, HDAC5 S259; experiment: HDAC4/5 phosphorylation immunoblotting in Ocy454 cells; format: cell-based, murine; details: 10nM, 1 hour (Supplementary Fig. S1)
Protocol: For immunoblotting, cells were prepared as described.^( ^37 ^) Whole cell lysates were prepared using TNT (Tris‐NaCl‐Tween buffer, 20mM Tris‐HCl pH 8, 200mM NaCl, 0.5% Triton X‐100 containing protease inhibitor [PI], 1mM NaF, 1mM dithiothreitol [DTT], 1mM vanadate). Adherent cells were washed with ice cold PBS, then scraped into TNT buffer on ice. Material was then transferred into Eppendorf tubes kept on ice, vortexed at top speed for 30 s, then centrifuged at 14,000g for 6 min at 4°C. For immunoblotting, lysates or immunoprecipitates were separated by SDS‐PAGE and proteins were transferred to nitrocellulose. […] The next day, membranes were washed, incubated with appropriate horseradish peroxidase (HRP)‐coupled secondary antibodies, and signals were detected with ECL Western Blotting Substrate (Pierce, Rockford, IL, USA), ECL Plus Western Blotting Substrate (Pierce), or SuperSignal West Femto Maximum Sensitivity Substrate (Thermo Scientific, Waltham, MA, USA). […] Quantification was performed using ImageJ.
In cells, SIKs are constitutively active kinases due to upstream LKB1 activation loop phosphorylation,^( ^45 ^) and therefore constitutively phosphorylate their substrates. […] We assessed the effects of different PTH ligands on class IIa HDAC and CRTC phosphorylation at well‐documented SIK phosphorylation sites: HDAC4 S246, HDAC5 S259, and CRTC2 S275. […]

[4] = test system: human PTH1R; experiment: β-arrestin2-YFP clustering in GBR-24 cells; format: cell-based; details: TMR-labeled ligands 30nM, 15 min, room temperature; β-arrestin2-YFP HEK293 cells (GBR-24) transiently transfected with human PTH1R
Protocol: Recruitment of β‐arrestin was assessed in HEK293 cells stably transfected to express β‐arrestin2‐YFP^( ^36 ^) and glosensor (GBR‐24 cells)^( ^34 ^) and transiently transfected to express the hPTH1R or mDsRed‐hPTH1R in which the monomeric Discosoma sp. red fluorescent protein is inserted in the E2 region of the receptor's extracellular domain. Cells were treated with each PTH1R ligand and imaged by fluorescent microscopy as described above (see 2.4 Internalization). The quantification of colocalizations between β‐arrestin2YFP and TMR‐ligands were performed by ImageJ software (NIH, Bethesda, MD, USA; https://imagej.nih.gov/ij/) using Just Another Colocalization Plugin (JACoP) and indicated as cytofluorograms.
Recruitment of the intracellular scaffolding proteins β‐arrrestin1/2 is a well‐characterized step that occurs following activation and GRK‐dependent phosphorylation in multiple G‐Protein‐Coupled Receptors (GPCRs) signaling systems.^( ^39 ^) β‐arrestin recruitment is traditionally thought to lead to signal termination due to receptor internalization. […] For this, HEK293 cells stably expressing YFP‐tagged β‐arrestin2 (GBR‐24 cells) were transiently transfected with human PTH1R cDNA, then treated with TMR‐labeled PTH ligands at 30nM for 15 min at room temperature. Thereafter, cells were rinsed, fixed, and viewed by epifluorescent microscopy.

[5] = test system: human PTH1R-pHluorin2-GFP; experiment: internalization using GFP^pHs fluorescence (GPG-10 cells); format: cell-based; details: continuous treatment 90 min, range of doses; ratio 485/405 nm excitation, emission 535 nm; pH 7.4; n = 6 independent experiments
Protocol: Receptor internalization was assessed in the HEK293 cell line stably transfected with human PTH1R‐pHluorin2‐GFP (GPG‐10 cells).^( ^33 , ^34 ^) Confluent monolayers of cells in black‐walled, 96‐well plates were incubated in HBSS with BSA (0.1% wt/vol) and HEPES buffer (pH 7.4, 10mM). Peptides were added and wells were analyzed by recording fluorescence readouts with excitation at 485 or 405 nm and emission at 535 nm. Data were analyzed as a ratio of fluorescence intensity following excitation at 485/405 nm over the course of 90 min, and the area under the curve (AUC) values for each time course were plotted as a function of ligand concentration.
A complementary approach was used to visualize ligand‐dependent colocalization of PTH1R and β‐arrestin2. For this, β‐arrestin2‐YFP–expressing cells were transiently transduced with a plasmid encoding a dsRed‐tagged version of human PTH1R. […] In that study, multiple ligand concentrations were used and the responses were assessed at the peak response time, which was generally ~5 min after ligand addition.^( ^42 ^) To explore differences in receptor internalization in more detail, we used constructs where the PTH receptor is fused to a pH‐sensitive GFP variant (GFP^pHs) which changes its fluorescent signal in acidic endosomes. […]

Row | Molecule | PTH-mimicking action [1] | intracellular signaling or PTH1R internalization [2] | SIK substrate phosphorylation and gene expression changes [3] | β-arrestin2 clustering/recruitment [4] | PTH1R internalization (AUC of GFP^pHs fluorescence ratio) [5]
1 | COc1ccc(N2C(=O)N(c3c(C)cccc3Cl)Cc3cnc(Nc4ccc(C5CCN(C)CC5)cc4OC)nc32)nc1 [YKL‐05‐099] | mimic PTH action in cultured osteocytes and in vivo | – | – | – | –
2 | LNleHQLdWKWIQDARRRAWLHKLIAEIHTAEI.NH2 [PTH (7‐36), N‐truncated LA‐PTH analog used as a negative control] | – | does not induce intracellular signaling or PTH1R internalization | completely inactive | fails to stimulate β‐arrestin2 recruitment | internalization‐deficient
